Experimental data as given in paper PMC10384011, “m-Terphenylamines, Acting as Selective COX-1 Inhibitors, Block Microglia Inflammatory Response and Exert Neuroprotective Activity” (Molecules, 2023).
pIC50: −log10 of the molar value.

What was measured:
ovine COX-1 = molecular target: T1, ovine COX-1 (Ovis aries, UniProt P05979); test: Cyclooxygenase colorimetric inhibitor screening assay, COX-1; format: biochemical; settings: for pIC50: ovine COX-1, colorimetric kit, triplicate, IC50; for pIC50 / inhibition at 50 µM: read-out: oCOX-1; for inhibition at 50 µM: % Inhibition at 50 µM (converted);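 for all read-outs here: COX peroxidase activity read colorimetrically as oxidized TMPD at 590 nm, arachidonic acid as substrate, inhibitors tested at 0.001–50 µM from DMSO stocks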
T1 construct: purchased Cayman Chemicals 701050
T1 sequence (P05979 25-600): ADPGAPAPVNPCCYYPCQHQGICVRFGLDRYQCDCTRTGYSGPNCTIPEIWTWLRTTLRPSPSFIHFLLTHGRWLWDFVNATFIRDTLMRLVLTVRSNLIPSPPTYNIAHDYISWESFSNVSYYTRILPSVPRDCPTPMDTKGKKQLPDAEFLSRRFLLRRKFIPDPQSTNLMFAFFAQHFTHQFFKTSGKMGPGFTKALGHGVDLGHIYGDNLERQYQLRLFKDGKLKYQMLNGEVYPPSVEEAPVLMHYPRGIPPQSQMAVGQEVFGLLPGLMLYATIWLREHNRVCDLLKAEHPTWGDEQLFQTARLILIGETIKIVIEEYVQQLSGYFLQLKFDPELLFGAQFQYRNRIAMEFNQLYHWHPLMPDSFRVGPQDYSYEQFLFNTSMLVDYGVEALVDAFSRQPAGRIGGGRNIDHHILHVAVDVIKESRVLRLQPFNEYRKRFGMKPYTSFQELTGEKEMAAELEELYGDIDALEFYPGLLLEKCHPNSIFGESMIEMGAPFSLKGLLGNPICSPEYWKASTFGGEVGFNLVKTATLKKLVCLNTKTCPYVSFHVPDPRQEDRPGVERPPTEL
Description: (§1) Newly synthesized compounds were evaluated for their ability to inhibit ovine COX-1 or human COX-2 enzyme by measuring the extent (%) of enzyme activity inhibition at different concentrations (0.001, 0.01, 0.1, 1, 10, 50 μM). […] The assay kit measures the peroxidase component of COXs that is assayed colorimetrically by monitoring the appearance of oxidized N,N,N′,N′-tetramethyl-p-phenylenediamine (TMPD) a λ = 590 nm. […] Stock solutions of test compounds were dissolved in DMSO.

human COX-2 = molecular target: T2, human COX-2 (Homo sapiens, UniProt P35354); test: Cyclooxygenase colorimetric inhibitor screening assay, COX-2; format: biochemical; settings: read-out: hCOX-2; for inhibition at 50 µM: human COX-2, 50 µM; for pIC50: human COX-2, colorimetric kit, IC50;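 for all read-outs here: peroxidase activity of COX-2 followed colorimetrically through formation of oxidized TMPD at 590 nm, with arachidonic acid as substrate, compounds tested from 0.001 to 50 µM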
T2 construct: purchased Cayman Chemicals 701050
T2 sequence (P35354 18-604): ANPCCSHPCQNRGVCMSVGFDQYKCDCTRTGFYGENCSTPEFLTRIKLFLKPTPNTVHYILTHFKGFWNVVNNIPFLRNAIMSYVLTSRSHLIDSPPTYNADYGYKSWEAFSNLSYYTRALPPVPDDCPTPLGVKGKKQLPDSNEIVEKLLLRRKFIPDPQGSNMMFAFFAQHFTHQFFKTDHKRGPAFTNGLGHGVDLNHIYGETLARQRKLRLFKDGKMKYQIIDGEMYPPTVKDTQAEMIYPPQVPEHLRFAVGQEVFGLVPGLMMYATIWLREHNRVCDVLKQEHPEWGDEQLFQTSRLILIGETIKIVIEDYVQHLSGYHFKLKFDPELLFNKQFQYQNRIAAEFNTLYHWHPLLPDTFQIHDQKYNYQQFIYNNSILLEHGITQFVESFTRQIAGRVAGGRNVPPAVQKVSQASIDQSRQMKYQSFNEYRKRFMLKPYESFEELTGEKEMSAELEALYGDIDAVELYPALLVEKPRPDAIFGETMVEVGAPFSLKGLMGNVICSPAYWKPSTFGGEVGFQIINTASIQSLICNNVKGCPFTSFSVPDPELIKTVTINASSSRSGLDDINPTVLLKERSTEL
Description: as §1

BV2 microglia cells = test: ROS production (H2DCFDA) in LPS-treated BV2 microglia; format: cell-based; settings: 3 μM, LPS 1 μg/mL, 24 h
Excerpt: Activation of toll-like receptors (TLRs), particularly the TLR4 subtype, is closely associated with the production of reactive oxygen and nitrogen species that contribute to neuronal death in the CNS. In this connection, NADPH oxidase enzymes are the main ones responsible for ROS production induced by NF-κB nuclear translocation. For this reason, we decided to assess the ROS levels of BV2 microglia cells treated with LPS and the effect of our compounds under this toxicity protocol. To this end, the compounds, at different concentrations (3 μM of 3a, 3b, and 3d and 10 μM of 3c) were incubated with 1 μg/mL LPS for 24 h. After this period, ROS production was measured with the fluorescent probe H2DCFDA. Treatment with LPS increased by 1.75-fold the amount of ROS compared with control cells.
Cultures were seeded into flasks containing supplemented medium and kept at 37 °C in a humidified atmosphere of 5% CO2 and 95% air. For assays, BV-2 cells were subcultured in 48-well plates at a seeding density of 1 × 10^5 cells per well. Cells were treated with LPS (Sigma-Aldrich, Madrid, Spain) for 24 or 48 h before confluence in RPMI with 1% FBS.
To measure cellular ROS, we used the molecular probe 2′,7′-dichlorodihydrofluorescein diacetate (H2DCFDA). Glial cells were loaded with 5 µM H2DCFDA as it was previously described (Parada et al., 2015). Fluorescence was measured in a fluorescence microplate reader (FLUOstar Galaxy; BMG Labtech, Offenburg, Germany). Wavelengths of excitation and emission were 485 and 520 nm, respectively. The relative pixel intensity was measured in identical regions with (ImageJ 1.52a software, National Institutes of Health, Bethesda, MD, USA).

Row | Molecule | melting point [°C] | pIC50 (ovine COX-1) | inhibition at 50 µM (human COX-2) [%] | pIC50 (human COX-2) | inhibition at 50 µM (ovine COX-1; ovine COX-1, 50 µM) [%] | also measured
1 | Nc1cc(-c2ccc(Cl)cc2)cc(-c2ccccc2)c1C(=O)O [Compound 2c, 6-Amino-2-phenyl-4-(4-chlorophenyl)benzoic acid] | 229 to 230 | < 4.30 | 4 | – | – | –
2 | COc1ccc(-c2cc(N)c(C(=O)O)c(-c3ccccc3)c2)cc1 [Compound 2e, 6-Amino-2-phenyl-4-(4-methoxyphenyl)benzoic acid] | – | < 4.30 | 20 | – | – | –
3 | CCOC(=O)c1c(NC(=O)NC2CCCCC2)cc(-c2ccccc2)cc1-c1ccc(OC)cc1 [Compound 5, Ethyl 6-(3′-cyclohexylureido)-2-(4-methoxyphenyl)-4-phenylbenzoate] | – | < 4.30 | – | < 4.30 | – | –
4 | c1ccc(Nc2cc(-c3ccccc3)cc(-c3ccccc3)c2)cc1 [Compound 3g, 5′-Phenylamino-m-terphenyl] | – | < 4.30 | – | < 4.30 | – | –
5 | Nc1cc(-c2ccc(Cl)cc2)cc(-c2ccc(Cl)cc2)c1C(=O)O [Compound 2d, 6-Amino-2,4-di-(4-chlorophenyl)benzoic acid] | 178 to 179 | < 4.30 | 13 | – | – | –
6 | Nc1cc(-c2ccc(Br)cc2)cc(-c2ccc(Br)cc2)c1C(=O)O [Compound 2f, 6-Amino-2,4-di-(4-bromophenyl)benzoic acid] | 239 to 240 | – | 12 | – | 8 | –
7 | Cc1ccc(-c2cc(N)c(C(=O)O)c(-c3ccccc3)c2)cc1 [Compound 2b, 6-Amino-2-phenyl-4-(4-tolyl)benzoic acid] | – | – | 2 | – | 46 | –
8 | Nc1cc(-c2ccc(Cl)cc2)cc(-c2ccc(Cl)cc2)c1 [Compound 3d, 4,4″-Dichloro-5′-amino-m-terphenyl] | – | – | – | < 4.30 | 36 | ROS production induced by LPS (BV2 microglia cells): failed to decrease the levels of ROS
9 | ethyl 6-amino-2-(4-methoxyphenyl)-2-phenylbenzoate [Compound 1e] | – | – | – | < 4.30 | – | oCOX-1; % Inhibition at 50 µM (ovine COX-1; ovine COX-1, 50 µM): NM (9) %
10 | O=C(O)c1c(Nc2ccccc2)cc(-c2ccccc2)cc1-c1ccccc1 [Compound 2g, 6-Phenylamino-2,4-diphenylbenzoic acid] | – | – | 13 | – | 7 | –
11 | COc1ccc(-c2noc(CC(=O)O)c2-c2ccc(OC)cc2)cc1 [Mofezolac, mofezolac, reference compound] | – | – | 42 | – | 100 | –
12 | CCOC(=O)c1c(N)cc(-c2ccccc2)cc1-c1ccccc1 [Compound 1a, ethyl 6-amino-2,4-diphenylbenzoate] | – | < 4.30 | – | < 4.30 | – | –
13 | Nc1cc(-c2ccccc2)cc(-c2ccccc2)c1C(=O)O [Compound 2a, 6-Amino-2,4-diphenylbenzoic acid] | 162 to 163 | – | 3 | – | 32 | –
14 | Nc1cc(-c2ccc(Br)cc2)cc(-c2ccc(Br)cc2)c1 [Compound 3f, 4,4″-Dibromo-5′-amino-m-terphenyl] | 163 to 164 | < 4.30 | – | < 4.30 | – | –

Continued, in another order:

Row | melting point [°C] | pIC50 (ovine COX-1) | inhibition at 50 µM (human COX-2) [%] | pIC50 (human COX-2) | inhibition at 50 µM (ovine COX-1; ovine COX-1, 50 µM) [%] | Molecule | also measured
15 | 208 to 209 | < 4.30 | – | < 4.30 | – | COc1ccc(-c2cc(NC(=O)NC3CCCC3)cc(-c3ccccc3)c2)cc1 [Compound 4e, 1-([4-Methoxy-m-terphenyl]-5′-yl)-3-cyclopentylurea] | –
16 | 222 to 223 | – | 30 | – | 10 | O=C(Nc1cc(-c2ccc(Br)cc2)cc(-c2ccc(Br)cc2)c1)NC1CCCC1 [Compound 4f, 1-([4,4″-Dibromo-m-terphenyl]-5′-yl)-3-cyclopentylurea] | COX-1 selectivity (in words) (ovine COX-1; ovine COX-1 vs human COX-2): did not show COX-1 selectivity
17 | 217 to 218 | < 4.30 | – | < 4.30 | – | Cc1ccc(-c2cc(NC(=O)NC3CCCC3)cc(-c3ccccc3)c2)cc1 [Compound 4b, 1-([4-Methyl-m-terphenyl]-5′-yl)-3-cyclopentyl urea] | –
18 | 203 to 204 | < 4.30 | – | < 4.30 | – | O=C(Nc1cc(-c2ccccc2)cc(-c2ccc(Cl)cc2)c1)NC1CCCC1 [Compound 4c, 1-([4-Chloro-m-terphenyl]-5′-yl)-3-cyclopentylurea] | –
19 | – | < 4.30 | – | < 4.30 | – | O=C(Nc1cc(-c2ccccc2)cc(-c2ccccc2)c1)NC1CCCC1 [Compound 4a, 1-([m-Terphenyl]-5′-yl)-3-cyclopentyl urea] | –
20 | 239 to 240 | < 4.30 | – | < 4.30 | – | O=C(Nc1cc(-c2ccc(Cl)cc2)cc(-c2ccc(Cl)cc2)c1)NC1CCCC1 [Compound 4d, 1-([4,4″-Dichloro-m-terphenyl]-5′-yl)-3-cyclopentylurea] | –
